In patent US20150174123A1, “OXABICYCLOHEPTANES AND OXABICYCLOHEPTENES FOR THE TREATMENT OF REPERFUSION INJURY” (priority 2012, published 2015):
Values joined by “and” are separate entries in the source; they are usually repeats but may differ in a detail not shown here. Identical values can stand only once. “Also recorded” adds a separate entry of the source. Like-named read-outs stand apart in the source and are kept apart here.

What was measured:
Akt [1] = experiment: Example 3: phosphorylation and activation of Akt in mammalian cells; format: cell-based; details: mammalian cells incl. cardiac, brain, endothelial cells; no data given
mammalian tissue = experiment: Example 4: reperfusion injury in mammalian tissue that has suffered an ischemia; format: in vivo; details: mammalian tissue after ischemia; no data given
Experimental: (§1) LB100, LB102 or LB107 are tested in an animal model of cardiac ischemia-reperfusion injury.
The mammalian tissue includes, but is not limited to, cardiac tissue, brain tissue and endothelial tissue.

heart = experiment: Example 5: tissue damage from reperfusion injury in the heart after myocardial infarction; format: in vivo; details: following myocardial infarction; no data given
Experimental: as §1

[2] = Example 5: sepsis, vascular leakage and endothelial dysfunction from reperfusion injury; format: in vivo; details: subject suffering from sepsis; no data given
PP2A [3] = molecular target: PP2A (Homo sapiens, UniProt P67775); details: cited from earlier work; for PP2A inhibition: statement in words
Chain of PP2A (Homo sapiens, UniProt P67775) (P67775 whole entry): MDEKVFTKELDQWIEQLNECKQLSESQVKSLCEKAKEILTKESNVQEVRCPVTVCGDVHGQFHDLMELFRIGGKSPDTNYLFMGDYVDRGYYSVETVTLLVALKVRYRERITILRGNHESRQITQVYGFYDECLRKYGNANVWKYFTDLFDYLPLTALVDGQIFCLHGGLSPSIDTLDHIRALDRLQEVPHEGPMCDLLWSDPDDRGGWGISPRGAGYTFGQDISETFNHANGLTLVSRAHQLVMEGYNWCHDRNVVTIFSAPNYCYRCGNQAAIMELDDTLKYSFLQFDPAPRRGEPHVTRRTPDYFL

[4] = given orally to mice; cited from earlier work
[5] = tested on: distal end of a flap graft; experiment: Survival of tissue at the distal end of a skin flap graft (necrosis by planimetry and photographs); format: in vivo, in-bred rats
Experimental: An ALZET pump (model 1007D, reservoir volume 100 ul) was implanted subcutaneously under anesthesia subcutaneously four days before creating a skin flap again under anesthesia. The pump in control animals contained sodium chloride and the pump in treated animals contained 0.55 mg of LB-100. The pump delivers 0.5 ul/hour+/−10% so each animal received about 12 ul/day for 8 days, 4 days prior to raising the graft and for the first 4 days after creation of the graft. There were 10 animals in each group.
The animals were sacrificed on day 7 following creation of the flap, the amount of necrosis at the end of the flap was measured by planimetry. The area of necrosis at the end of the flap was divided by total surface area of the entire flap and expressed as a percentage.
The visual appearance of the flaps was also inspected. FIGS. 1a-j show control rats 1-10 on day 7 and FIGS. 2a-j show treatment rats 1-10 on day 7. The treatment rats had received LB-100.

[6] = Toxicokinetic studies in rats; format: in vivo; details: doses known to inhibit PP2A in tissue of rodents
[7] = Toxicokinetic studies in dogs; format: in vivo; details: doses known to inhibit PP2A in tissue of rodents
PP2A [8] = details: in vitro in human cancer cells; cited from earlier work
PP2A [9] = details: xenografts of human tumor cells in mice, given parenterally; cited from earlier work
cancer cells = details: mouse model systems; cited from earlier work
Akt [10] = details: Lu et al. 2009; US patent; cited from earlier work
PP1 = details: Lu et al. 2009(a); cited from earlier work
rabbit cells = rabbit cells in vitro; cited from earlier work
pig cells = pig cells in vitro; cited from earlier work
[11] = tested on: cardiac tissue (myocardium); details: given before or after onset of oxygen deprivation, cited from earlier work
pig myocardium = details: cited from earlier work
[12] = young and aged rats; cited from earlier work
endothelial barrier = details: septic insult; concentration that inhibits PP2A activity; cited from earlier work
[13] = tested on: mouse skeletal muscle endothelial cells; details: cited from earlier work

Compound	Activation of Akt (Akt [1])	Dephosphorylation and inactivation of Akt by PP2A (Akt [1])	Phosphorylation of Akt (Akt [1])	Reperfusion injury (mammalian tissue)	Tissue damage associated with reperfusion injury in the heart (heart)	Endothelial dysfunction associated with reperfusion injury [2]	Vascular leakage associated with reperfusion injury [2]	PP2A inhibition (PP2A [3])	PP2A inhibition (PP2A [8])	PP2A inhibition (PP2A [9])	Growth of cancer cells (cancer cells)	Phosphorylation of Akt (Akt [10])	Protection from injury (rabbit cells)	Protection from injury (pig cells)	also measured
COC(=O)C1C(C(=O)N2CCN(C)CC2)[C@@H]2CC[C@H]1O2 (stereo in doubt) [LB-107, 3-(4-Methylpiperazine-1-carbonyl)-7-oxa-bicyclo[2,2,1]heptane-2-carboxylic acid methyl ester]	increase activation of Akt	reduce dephosphorylation and inactivation of Akt	increase phosphorylation of Akt	reduce reperfusion injury	reduce tissue damage; also recorded: prevent tissue damage	reduce endothelial dysfunction	reduce vascular leakage	effective inhibitors of PP2A							Oral activity [4]: active when given orally
CN1CCN(C(=O)C2C(C(=O)O)[C@H]3CC[C@@H]2O3)CC1 (some centres unmarked) [LB-100]	increase activation of Akt	reduce dephosphorylation and inactivation of Akt	increase phosphorylation of Akt	reduce reperfusion injury	reduce tissue damage; also recorded: prevent tissue damage	reduce endothelial dysfunction	reduce vascular leakage	effective inhibitors of PP2A	inhibitors of PP2A	inhibitors of PP2A	inhibit the growth of cancer cells	increased phosphorylation of Akt			Average area of necrosis (%) ([5]; average of 10 treatment rats, day 7, control average 41.0627243): 31.97%; Visual appearance of flaps (photographs) ([5]; day 7, distal ends of the flap, vs control rats): less extensive necrosis; Necrosis (area by planimetry) ([5]; individual treatment rats 1-10, day 7 after flap creation, pump with 0.55 mg LB-100): 64147 and 66886 and 77327 and 91515 and 112275 and 55473 and 63777 and 66144 and 37181 and 77089; Area of necrosis at the end of the flap divided by total surface area of the flap (%) ([5]; individual treatment rats 1-10, day 7 after flap creation, pump with 0.55 mg LB-100, about 12 ul/day for 8 days): 31.96% and 28.88% and 30.7% and 39.47% and 40.43% and 30.66% and 33.77% and 25.95% and 24.03% and 33.9%; Mean decrease in extent of necrosis in treated animals ([5]; treated vs control rats, planimetry, day 7): 22%; Toxicity [6]: acceptable and reversible toxicity; Toxicity [7]: acceptable and reversible toxicity
CC(C)(C)OC(=O)N1CCN(C(=O)C2C(C(=O)O)[C@H]3CC[C@@H]2O3)CC1 (some centres unmarked) [LB-102]	increase activation of Akt	reduce dephosphorylation and inactivation of Akt	increase phosphorylation of Akt	reduce reperfusion injury	reduce tissue damage; also recorded: prevent tissue damage	reduce endothelial dysfunction	reduce vascular leakage	effective inhibitors of PP2A	inhibitors of PP2A	inhibitors of PP2A	inhibit the growth of cancer cells	increased phosphorylation of Akt			IC50 (PP2A [3]; read-out: IC50 PP2A, Lu et al. 2009(a)): ~0.4 µM; IC50 (PP1): ~8 µM
COC[C@@H]([C@H](O)[C@H](O)C(=O)NCC[C@H](C)c1nc(/C=C/C[C@@H]2O[C@]3(C[C@@H](O)[C@@H]2C)O[C@H]([C@H](C[C@H](O)[C@H](C)[C@H](O)[C@H](C)/C=C(C)/C(C)=C/C=C/C(C)=C\C#N)OC)[C@H](OP(=O)(O)O)C3(C)C)co1)N(C)C [calyculin A]													afforded protection from injury	afforded protection from injury	
C[C@@](O)(/C=C/[C@H]1CC=CC(=O)O1)[C@@H](C[C@@H](O)\C=C/C=C\C=C\CO)OP(=O)(O)O [fostriecin]													afforded protection from injury	afforded protection from injury	Size of infarction of cardiac tissue / injury [11]: minimizes the size of infarction; Size of infarction of cardiac tissue / injury ([11]; listed as FOS): reduces injury
C=C1[C@@H](O)[C@@H]2O[C@]3(CC[C@H](/C=C/[C@@H](C)[C@@H]4CC(C)=C[C@@]5(O[C@H](C[C@@](C)(O)C(=O)O)CC[C@H]5O)O4)O3)CC[C@H]2O[C@@H]1[C@@H](O)C[C@H](C)[C@H]1O[C@@]2(CCCCO2)CC[C@H]1C [okadaic acid]															Activity of phosphatases, especially PP2A, in heart tissue (pig myocardium; heart tissue infused with the inhibitor): decreased; Protection of myocardium against ischemia (pig myocardium; pig, in vivo model): protected pig myocardium against ischemia; Cellular death following induced MI [12]: reduced cellular death; Endothelial barrier disruption (endothelial barrier): decreases endothelial barrier disruption; Endothelial barrier function [13]: preserved endothelial barrier function
